The record followed here is patent US20240327414A1, “CYCLOPROPYL-(HETERO)ARYL-SUBSTITUTED ETHYL- SULFONE / SULFOXIMINE-PYRIDINE N-OXIDE DERIVATIVES” (Boehringer Ingelheim Vetmedica GmbH, priority 2023, published 2024).

One may read the EC50 as the midpoint of the concentration-response curve. Higher therefore signals a less potent agent. A word on the mortality: it is the share of the test organisms that died.

Assay [1] has as its system adult C. felis fleas. Description: Ingestion activity against adult Ctenocephalides felis (alternative method, membrane feeding, mortality). Conditions: bovine blood, mortality at 48 hours post-treatment. As to the method: Selected N-oxide compounds of formula (I), (Ia) and (Ib) and compound “P23” of WO 2016/030229 dissolved in 100% DMSO are diluted in bovine blood with sodium heparin anti-coagulant. The resulting formulation is offered via an artificial membrane feeding system to approximately 15 adult C. felis fleas previously dispensed into 24-well plates. The plates are then incubated in a double-chambered device. Visual evaluation for mortality is performed at 48 hours post-treatment. Compound efficacy at a given dose is expressed as percentage mortality and determined by normalization to positive and negative controls. A dose response series is implemented to determine EC50 values.
Example 7: Screening Method to Test Ingestion Activity of N-Oxide Compounds of Formula (I), (Ia) or (Ib) Against Adult Ctenocephalides felis (Alternative Method)
N-oxide compounds of formula (I), (Ia) and (Ib) dissolved in 100% DMSO are diluted in bovine blood with sodium heparin anti-coagulant. The resulting formulation is offered via an artificial membrane feeding system to approximately 15 adult C. felis fleas previously dispensed into 24-well plates. The plates are then incubated in a double-chambered device. Visual evaluation for mortality is performed at 48 hours post-treatment. Compound efficacy at a given dose is expressed as percentage mortality and determined by normalization to positive and negative controls. A dose response series is implemented to determine EC50 values.
The structurally closest prior art compound “P23” of WO 2016/030229 is characterized vis-à-vis selected N-oxide compounds of formula (I), (Ia) and (Ib) with regard to their potency in in vitro screening assay to test ingestion activity against adult fleas (Ctenocephalides felis) (alternative method according to Example 7).

For assay [2], the system named is adult Ctenocephalides felis fleas. Description: Contact activity against adult Ctenocephalides felis. Conditions: adult C. felis, mortality at 72 hours post-treatment. Here is the method: Example 4: Screening Method to Test Contact Activity of N-Oxide Compounds of Formula (I), (Ia) or (Ib) Against Adult Ctenocephalides felis
N-oxide compounds of formula (I), (Ia) and (Ib) dissolved in 100% DMSO are diluted in acetone to a desired concentration. The resulting formulation is used to coat the fibers of a 0.5-inch-long piece of pipe cleaner placed in a glass scintillation vial. The vial is capped with a rubber gasket and filter paper insert. After the acetone has evaporated, ten adult Ctenocephalides felis fleas are added to each vial. The vials are then incubated at 22° C., 80% relative humidity, and 12 hours of light/12 hours of dark until a visual evaluation for mortality is performed at 72 hours post-treatment. Compound efficacy at a given dose is expressed as percentage mortality and adjusted to remove background mortality observed in control vials containing DMSO only. A dose response series of treated vials is implemented to determine EC50 values.

Assay [3] concerns Plutella xylostella. Description: Insecticidal test on Plutella xylostella. It counts as in vivo. Conditions: 144 h, Chinese cabbage seedling dip, 6 days after the dip treatment, read-out: activity level (corrected mortality rate). Here is the method: Example 15: Insecticidal Test on Plutella xylostella
The N-oxide compounds of formula (I), (Ia) and (Ib) of the present invention or salts thereof are separately dispersed in water and diluted to 500 ppm. Ten adults of Plutella xylostella are released onto Chinese cabbage seedlings and allowed to lay eggs thereon. 2 days after the release of the adults, the seedling is dipped in the dispersion for about 30 seconds. After air dried, the seedling is kept in a room at 25° C. 6 days after the dip treatment, the numbers of the dead and alive insects are counted. The corrected mortality rate is calculated according to the following formula and the insecticidal activity is evaluated according to the following criteria.
(§1) [formula] [formula] • A: the corrected mortality rate is 100% • B: the corrected mortality rate is 90 to 99% • C: the corrected mortality rate is 80 to 89% • D: the corrected mortality rate is 50 to 79%

Assay [4] has as its system adult C. felis fleas. Description: Ingestion activity against adult Ctenocephalides felis (membrane feeding, motility). Conditions: 48 h, ingestion in bovine blood, % motility reduction 48h post treatment. Here is the method:
Example 6: Screening Method to Test Ingestion Activity of N-Oxide Compounds of Formula (I), (Ia) or (Ib) Against Adult Ctenocephalides felis
N-oxide compounds of formula (I), (Ia) and (Ib) dissolved in 100% DMSO are added to bovine blood and offered via an artificial membrane feeding system to adult C. felis fleas. The motility of fleas is then visually inspected 48h post treatment. Efficacy is expressed in % motility reduction compared to controls containing blood treated with DMSO only. A dose response series is implemented to determine EC50 values.

Assay [5] relates to Laodelphax striatellus. Description: Insecticidal test on Laodelphax striatellus. It counts as in vivo. Conditions: 192 h, rice seedling dip, 3rd-instar nymphs, 8 days after inoculation, read-out: activity level (corrected mortality rate). As to the method: Example 16: Insecticidal Test on Laodelphax striatellus
The N-oxide compounds of formula (I), (Ia) and (Ib) of the present invention or salts thereof are separately dispersed in water and diluted to 500 ppm. Rice plant seedlings are dipped in the dispersion for about 30 seconds. After air dried, the seedlings are put into a separate glass test tube and inoculated with ten 3rd-instar nymphs of Laodelphax striatellus and then the glass test tube is kept in a room at 25° C. 8 days after the inoculation, the numbers of the dead and alive insects are counted. The corrected mortality rate is calculated according to the following formula and the insecticidal activity is evaluated according to the following criteria.
as §1

The subject of assay [6] is A. aegypti L1 larvae. Description: Screening against larvae of Aedes aegypti. Conditions: 48 h at 27° C., percentage of mortality. As to the method: Example 3: Screening Method to Test Activity of N-Oxide Compounds of Formula (I), (Ia) or (Ib) Against Larvae of Aedes aegypti
Eight A. aegypti L1 larvae in a total volume of 64 μL water are added to 384-well microplates containing N-oxide compounds of formula (I), (Ia) and (Ib) formulated in 100% DMSO. The plates are incubated for 48 h at 27° C. Individual well images are acquired and analyzed using a pipeline to quantitatively assess the amount of larvae biomass accumulating at the bottom of the well. The efficacy of a compound at a given dose is expressed as “percentage of mortality” and determined by comparison to average biomass descriptors of positive and negative control wells containing 1.0 μM Fipronil or DMSO only, respectively. Dose response assay are conducted to determine an EC50 value.

The test system of assay [7] is Spodoptera litura. Description: Insecticidal test on Spodoptera litura. Format: in vivo. The following applies: foliar, 192 h, cabbage leaf dip, 2nd-instar larvae, 8 days after inoculation, read-out: activity level (corrected mortality rate). Here is the method: Example 14: Insecticidal Test on Spodoptera litura
The N-oxide compounds of formula (I), (Ia) and (Ib) of the present invention or salts thereof are separately dispersed in water and diluted to 500 ppm. Cabbage leaves are dipped in the dispersion for about 30 seconds. After air dried, the leaves are placed in a plastic Petri dish with a diameter of 9 cm and inoculated with ten 2nd-instar larvae of Spodoptera litura, after which the dish is closed and then allowed to stand in a room at 25° C. 8 days after the inoculation, the numbers of the dead and alive insects are counted. The corrected mortality rate is calculated according to the following formula and the insecticidal activity is evaluated according to the following criteria.
as §1

Assay [8] concerns adult R. sanguineus ticks. Description: Contact activity against adult Rhipicephalus sanguineus. The following applies: mortality at 48 hours post-treatment. Here is the method:
Example 5: Screening Method to Test Contact Activity of N-Oxide Compounds of Formula (I), (Ia) or (Ib) Against Adult Rhipicephalus sanguineus
N-oxide compounds of formula (I), (Ia) and (Ib) formulated in 100% DMSO are diluted in a solution containing acetone and Triton X-100 (0.02%). The resulting formulation is used to coat the inner walls of glass scintillation vials and the filter paper covering the cap of the vial. Once dried, ten adult R. sanguineus ticks are added to the vials. The vials are incubated at 24° C., 95% relative humidity, and 12 hours of light/12 hours of dark until evaluation. Ticks are visually evaluated for mortality at 48 hours post-treatment. Compound efficacy at a given dose is expressed as percentage mortality. A dose response series was implemented to determine EC50 values.

`CCS(=O)(=O)c1cc(-c2noc(C3CC3)n2)cnc1-c1nc2cc(C(F)(F)C(F)(F)F)n[n+]([O-])c2n1C` [Compound 1, 6-[5-(5-cyclopropyl-1,2,4-oxadiazol-3-yl)-3-(ethanesulfonyl)pyridin-2-yl]-7-methyl-3-(1,1,2,2,2-pentafluoroethyl)-7H-imidazo[4,5-c]pyridazin-1-ium-1-olate]: the values for the EC50 in assay [1], in assay [2] and in assay [4] were 0.783 µM, 10 to 100 µM and below 10 µM, respectively. Moreover, the mortality at 500 ppm in assay [3] and in assay [5] was 100% throughout.

On to `CCS(=O)(=O)c1cc(-c2ccc(C3(F)CC3)cc2)c[n+]([O-])c1-c1nc2cc(C(F)(F)C(F)(F)F)nnc2n1C` [Compound 27], for which the EC50 was below 0.04 µM in assay [6], 0.46 µM in assay [1] and below 10 µM in assay [4]. The mortality at 500 ppm in assay [3] and in assay [5] was 100% throughout.

`CCS(=O)(=O)c1cc(-c2noc(C3CC3)n2)c[n+]([O-])c1-c1nc2cc(C(F)(F)C(F)(F)F)n[n+]([O-])c2n1C` [Compound 4, 5-(5-cyclopropyl-1,2,4-oxadiazol-3-yl)-3-(ethanesulfonyl)-2-[7-methyl-1-oxido-3-(1,1,2,2,2-pentafluoroethyl)-7H-imidazo[4,5-c]pyridazin-1-ium-6-yl]pyridin-1-ium-1-olate] registered an EC50 in assay [4] of 10 to 100 µM.

As for `CCS(=O)(=O)c1cc(-c2noc(C3CC3)n2)cnc1-c1nc2cc(C(C)(F)F)n[n+]([O-])c2n1C` [Compound 39], the EC50 in assay [1] is 0.454 µM. The mortality at 500 ppm in assay [3] and in assay [5] was 100% throughout.

Regarding `CCS(=O)(=O)c1cc(-c2noc(C3(C(F)(F)F)CC3)n2)cnc1-c1nc2cc(C(C)(F)F)n[n+]([O-])c2n1C` [Compound 8], the EC50 in assay [1] is 0.141 µM; in assay [2], 10 to 100 µM; in assay [4], below 10 µM. Besides, the mortality at 500 ppm in assay [7], in assay [3] and in assay [5] was 100% in each case.

Turning to `CCS(=O)(=O)c1cc(-c2noc(C3CC3)n2)cnc1-c1nc2cc(C(F)(F)C(F)(F)F)c[n+]([O-])c2n1C` [Compound 33], the half-maximal effective concentration (EC50) in assay [8] was 10 to 100 µM; in assay [1], 0.889 µM; in assay [2], below 10 µM; in assay [4], below 10 µM. Besides, the mortality at 500 ppm in assay [3] and in assay [5] was 100% each time.

Regarding `CCS(=O)(=O)c1cc(-c2ccc(C3(F)CC3)cc2)c[n+]([O-])c1-c1nc2cc(C(F)(F)C(F)(F)F)n[n+]([O-])c2n1C` [Compound 45], the EC50 is below 0.04 µM in assay [6] and below 10 µM in assay [4].

`CCS(=O)(=O)c1cc(-c2ccc(C3(C#N)CC3)cc2)c[n+]([O-])c1-c1nc2cc(C(F)(F)F)cn(CC(F)F)c-2c1F` [Compound 44, 5-[4-(1-cyanocyclopropyl)phenyl]-2-[4-(2,2-difluoroethyl)-3-fluoro-6-(trifluoromethyl)-4H-pyrrolo[3,2-b]pyridin-2-yl]-3-(ethanesulfonyl)pyridin-1-ium-1-olate]: the EC50 in assay [2] lay within 10 to 100 µM.

For `CCS(=O)(=O)c1cc(-c2noc(C3CC3)n2)c[n+]([O-])c1-c1nc2cc(C(F)(F)C(F)(F)F)nnc2n1C` [Compound 3, 5-(5-cyclopropyl-1,2,4-oxadiazol-3-yl)-3-(ethanesulfonyl)-2-[7-methyl-3-(1,1,2,2,2-pentafluoroethyl)-7H-imidazo[4,5-c]pyridazin-6-yl]pyridin-1-ium-1-olate], in assay [4], the EC50 is below 10 µM.

As to `CCS(=O)(=O)c1cc(-c2noc(C3CC3)n2)cnc1-c1nc2cc(C(F)(F)C(F)(F)F)[n+]([O-])nc2n1C` [Compound 2, 6-[5-(5-cyclopropyl-1,2,4-oxadiazol-3-yl)-3-(ethanesulfonyl)pyridin-2-yl]-7-methyl-3-(1,1,2,2,2-pentafluoroethyl)-7H-imidazo[4,5-c]pyridazin-2-ium-2-olate], the EC50 in assay [2] is 10 to 100 µM; in assay [4], below 10 µM.

`CCS(=O)(=O)c1cc(-c2noc(C3(C(F)(F)F)CC3)n2)cnc1-c1n(C)c2ncc(C(C)(F)F)cc2[n+]1[O-]` [Compound 7] registered an EC50 in assay [1] of 0.41 µM.

As to `CCS(=O)(=O)c1cc(-c2cc(C3CC3)ccn2)cnc1-c1nc2cc(C(F)(F)C(F)(F)F)c[n+]([O-])c2n1C` [Compound 29], the EC50 in assay [6] was in the range of 0.04 to 0.05 µM; in assay [4] it was 10 to 100 µM.

Compound `CCS(=O)(=O)c1cc(-c2noc(C3CC3)n2)cnc1-c1nc2cc(C(C)(F)F)[n+]([O-])nc2n1C` [Compound 40] yielded an EC50 in assay [1] of 0.807 µM.

In assay [4], `CCS(=O)(=O)c1cc(-c2ccc(C3CC3)cc2)c[n+]([O-])c1-c1nc2cc(C(F)(F)C(F)(F)F)cnc2n1C` [Compound 23] yielded an EC50 of 10 to 100 µM.

For `CCS(=O)(=O)c1cc(-c2ccc(C3(F)CC3)cc2)cnc1-c1nc2cc(C(F)(F)C(F)(F)F)n[n+]([O-])c2n1C` [Compound 36], the EC50 in assay [8] is 10 to 100 µM; in assay [6], below 0.04 µM; in assay [1], 1.06 µM; in assay [4] it was 10 to 100 µM. Also, the mortality at 500 ppm in assay [3] and in assay [5] was 100% throughout.
